# Results reported in PubChem BioAssay AID1918995 (Molecular Pharmacology Branch, DTP, NCI, 2023).
# Where “and” joins values, the source holds several entries; their conditions need not be identical. Equal values may be shown once.
# System: 324938-238-R-J1-PDC complex spheroid growth, % test/control
# Assay: Anticancer human tumor 324938-238-R-J1-PDC patient-derived bladder carcinoma cell line growth inhibition [AhR]
# Details: for viability, T/C: stronger effect = lower value
# From the text: Multicellular complex tumor spheroid response to aryl hydrocarbon receptor antagonists in combination with a variety of drugs and investigational agents in selected tumor cell lines
# The current study was undertaken to assess response to aryl hydrocarbon receptor antagonists in combination with standard-of-care drugs and investigational agents in solid tumor complex spheroid models. Complex spheroids include a stromal component modeled by human endothelial cells (HUVEC) and fibroblasts modeled by human mesenchymal stem cells (MSCs). The concentration ranges selected for each drug and investigational agent were based upon clinically achievable concentrations if the clinical Cmax of the agent was known.
# Compounds. The drugs and investigational agents: BAY 2416964 (NSC825713), GNF351 (NSC835774), CH-223191 (NSC835775), CPI-455 (NSC825282), aza-TdCyd (NSC777586), decitabine (NSC127716), belinostat (NSC758774), entinostat (NSC756642), pevonedistat (NSC761192), tazemetostat (NSC777109), talazoparib (NSC765396), olaparib (NSC753686), selinexor (NSC780203), nedisertib (M3814, NSC802822), bortezomib (NSC756655), venetoclax (NSC766270), doxorubicin (NSC123127), elimusertib (BAY189344, NSC800525), ceralasertib (AZD6738, NSC777638), TAK-243 (NSC785004), alisertib (NSC759677), etoposide (NSC141540), topotecan (NSC609699), eribulin (NSC707389), gemcitabine (NSC613327), carboplatin (NSC241240), cisplatin (NSC119875), and SN-38 (NSC673596) were obtained from the National Cancer Institute (NCI) Developmental Therapeutics Program Chemical Repository (32). The FDA-approved anticancer drug set is available from the Developmental Therapeutics Program at https://dtp.cancer.gov/organization/dscb/obtaining/available plates.htm. […] The stock solutions were prepared in dimethyl sulfoxide (DMSO, Sigma-Aldrich, St. Louis, MO, cat. D2650), except for the platinum compounds which were prepared in saline (Quality Biological, Gaithersburg, MD, cat. 114-055-101), at 800-fold the tested concentration and stored at -70 degrees C prior to their use. All drugs and investigational agents were tested over a range starting from a high concentration at or near the clinical Cmax and decreasing in half-log increments. If the clinical Cmax for an agent had not been determined, the highest concentration tested was 10 microM (Table 1).
# Cell Culture. All cells were maintained in an incubator at 37 degrees C and 5% CO2 with 95% humidity. The PDC lines were cultured according to standard operating procedures established by the NCI PDMR (https://pdmr.cancer.gov). Briefly, all PDCs were thawed and cultured in Matrigel-coated flasks prepared with a working solution of 1X Ham's F-12 nutrient mix, without supplementation (Invitrogen, Waltham, MA, cat. 11765054), 100 U/mL penicillin-streptomycin (Invitrogen, cat. 15140122), and 2.5% Matrigel (Corning Inc., Corning, NY, cat. 354248) for the first three passages. All PDCs were cultured in complete DMEM/F-12 media containing advanced DMEM/F-12 (Invitrogen, cat. 12634028), 4.9% defined fetal bovine serum, heat inactivated (HyClone Laboratories Inc., Logan, UT, cat. SH30070.03HI), 389 ng/mL hydrocortisone (Sigma-Aldrich, cat. H4001), 9.7 ng/mL human EGF recombinant protein (Invitrogen, cat. PHG0313), 23.4 microg/mL adenine (Sigma-Aldrich, cat. A2786), 97.3 U/mL penicillin-streptomycin (Invitrogen, cat. 15140122), 1.9 mM L-glutamine (Invitrogen, cat. 25030081), and 9.7 microM Y-27632 dihydrochloride (Tocris Bioscience, Bristol, United Kingdom, cat. 1254). The PDCs were cultured in complete DMEM/F12 media without 10 microM Y-27632 dihydrochloride for at least two passages prior to the screen. The established cell lines NCI-H1341 and […] were cultured in DMEM/F-12, HEPES (Invitrogen, cat. 11330032), 5% defined fetal bovine serum (HyClone Laboratories Inc., cat. SH30070.03), ITS premix universal culture supplement [insulin (5 microg/mL), transferrin (5 microg/mL), and selenious acid (5 ng/mL)] […]
# [1] = curve of first compound, second compound 0.1 µM
# [2] = curve of first compound, second compound 0.316 µM
# [3] = curve of first compound, second compound 1 µM
# [4] = curve of first compound, second compound 3.16 µM
# [5] = curve of first compound, second compound 10 µM
# [6] = second compound 0.1 µM, first compound 0.0316 µM
# [7] = second compound 0.1 µM, first compound 0.1 µM
# [8] = second compound 0.1 µM, first compound 0.316 µM
# [9] = second compound 0.1 µM, first compound 1 µM
# [10] = second compound 0.316 µM, first compound 0.0316 µM
# [11] = second compound 0.316 µM, first compound 0.1 µM
# [12] = second compound 0.316 µM, first compound 0.316 µM
# [13] = second compound 0.316 µM, first compound 1 µM
# [14] = second compound 1 µM, first compound 0.0316 µM
# [15] = second compound 1 µM, first compound 0.1 µM
# [16] = second compound 1 µM, first compound 0.316 µM
# [17] = second compound 1 µM, first compound 1 µM
# [18] = second compound 3.16 µM, first compound 0.0316 µM
# [19] = second compound 3.16 µM, first compound 0.1 µM
# [20] = second compound 3.16 µM, first compound 0.316 µM
# [21] = second compound 3.16 µM, first compound 1 µM
# [22] = second compound 10 µM, first compound 0.0316 µM
# [23] = second compound 10 µM, first compound 0.1 µM
# [24] = second compound 10 µM, first compound 0.316 µM
# [25] = second compound 10 µM, first compound 1 µM
# 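Also: spheroids exposed to agents for seven days before viability read.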
structure (smiles),measurement,setting,value
CC(C)c1c(-c2ccccc2)nc2c(C#N)c[nH]n2c1=O + Cc1ccccc1N=Nc1ccc(NC(=O)c2ccnn2C)c(C)c1,IC50,[1],> 10000 nM
same,IC50,[2],> 10000 nM
same,IC50,[3],> 10000 nM
same,IC50,[4],> 10000 nM
same,IC50,[5],> 10000 nM
same,"viability, T/C",[6],101%
same,"viability, T/C",[7],91.3%
same,"viability, T/C",[8],95.5%
same,"viability, T/C",[9],83.9%
same,"viability, T/C","second compound 0.1 µM, first compound 3.16 µM",92.1%
same,"viability, T/C","second compound 0.1 µM, first compound 10 µM",73.9%
same,"viability, T/C",[10],87.3%
same,"viability, T/C",[11],92.9%
same,"viability, T/C",[12],90.7%
same,"viability, T/C",[13],81.6%
same,"viability, T/C","second compound 0.316 µM, first compound 3.16 µM",75.3%
same,"viability, T/C","second compound 0.316 µM, first compound 10 µM",68%
same,"viability, T/C",[14],80.1%
same,"viability, T/C",[15],91.8%
same,"viability, T/C",[16],76%
same,"viability, T/C",[17],80.5%
same,"viability, T/C","second compound 1 µM, first compound 3.16 µM",68.3%
same,"viability, T/C","second compound 1 µM, first compound 10 µM",65.8%
same,"viability, T/C",[18],80.1%
same,"viability, T/C",[19],81.4%
same,"viability, T/C",[20],64.9%
same,"viability, T/C",[21],67.5%
same,"viability, T/C","second compound 3.16 µM, first compound 3.16 µM",65.7%
same,"viability, T/C","second compound 3.16 µM, first compound 10 µM",56%
same,"viability, T/C",[22],70.8%
same,"viability, T/C",[23],75.2%
same,"viability, T/C",[24],79.4%
same,"viability, T/C",[25],65.1%
same,"viability, T/C","second compound 10 µM, first compound 3.16 µM",54.4%
same,"viability, T/C","second compound 10 µM, first compound 10 µM",61%
Nc1ncn(C2CC(O)C(CO)O2)c(=O)n1 (configuration not stated) + CC(CO)NC(=O)c1cc(-c2ccc(Cl)cc2)nn(-c2cnn(C)c2)c1=O,IC50,[1],> 1000 nM
same,IC50,[2],> 1000 nM
same,IC50,[3],> 1000 nM
same,IC50,[4],> 1000 nM
same,IC50,[5],> 1000 nM
same,"viability, T/C","second compound 0.1 µM, first compound 0.00316 µM",98.5%
same,"viability, T/C","second compound 0.1 µM, first compound 0.01 µM",97.5%
same,"viability, T/C",[6],93.4%
same,"viability, T/C",[7],73.4%
same,"viability, T/C",[8],81.7%
same,"viability, T/C",[9],72.3%
same,"viability, T/C","second compound 0.316 µM, first compound 0.00316 µM",98.4%
same,"viability, T/C","second compound 0.316 µM, first compound 0.01 µM",102%
same,"viability, T/C",[10],97.5%
same,"viability, T/C",[11],82.9%
same,"viability, T/C",[12],80.2%
same,"viability, T/C",[13],64.8%
same,"viability, T/C","second compound 1 µM, first compound 0.00316 µM",85.9%
same,"viability, T/C","second compound 1 µM, first compound 0.01 µM",91.3%
same,"viability, T/C",[14],82.8%
same,"viability, T/C",[15],72.2%
same,"viability, T/C",[16],68.3%
same,"viability, T/C",[17],61.5%
same,"viability, T/C","second compound 3.16 µM, first compound 0.00316 µM",72.4%
same,"viability, T/C","second compound 3.16 µM, first compound 0.01 µM",72.5%
same,"viability, T/C",[18],64.1%
same,"viability, T/C",[19],60.4%
same,"viability, T/C",[20],64.4%
same,"viability, T/C",[21],57.6%
same,"viability, T/C","second compound 10 µM, first compound 0.00316 µM",61.4%
same,"viability, T/C","second compound 10 µM, first compound 0.01 µM",67.9%
same,"viability, T/C",[22],65.8%
same,"viability, T/C",[23],55.9%
same,"viability, T/C",[24],58.3%
same,"viability, T/C",[25],57.8%
Nc1ccccc1NC(=O)c1ccc(CNC(=O)OCc2cccnc2)cc1,"viability, T/C",compound 0.0316 µM,90% and 112% and 121%
same,"viability, T/C",compound 0.1 µM,80.4% and 111% and 110%
same,"viability, T/C",compound 0.316 µM,57.2% and 107% and 97.9%
same,"viability, T/C",compound 1 µM,61.7% and 69% and 70.3%
same,"viability, T/C",compound 3.16 µM,37.1% and 43.2% and 58.1%
same,IC50,curve of compound,1310 nM and 2200 nM and 3500 nM
COc1cc(C2c3cc4c(cc3C(OC3OC5COC(C)OC5C(O)C3O)C3COC(=O)C23)OCO4)cc(OC)c1O (configuration not stated),"viability, T/C",compound 0.0316 µM,118% and 99.2% and 96.2%
same,"viability, T/C",compound 0.1 µM,101% and 103% and 86.9%
same,"viability, T/C",compound 0.316 µM,113% and 51.8% and 53%
same,"viability, T/C",compound 1 µM,97% and 31.6% and 32.9%
same,"viability, T/C",compound 3.16 µM,78.7% and 31.4% and 29.9%
same,"viability, T/C",compound 10 µM,95.9% and 19% and 20%
